Measured values: patent publication US7186534B1 (The Trustees of Columbia University in the City of New York, priority 1997, dated 2007)
pIC50: −log10 of the molar value. Entries after “also recorded” stand apart in the source; their conditions may differ. Where two headings read alike, the source gives them in different places.

Key:
[1] = biological target: T1, human 9-cis retinol dehydrogenase (9cRDH) (Homo sapiens, UniProt Q92781); test: Inhibition of recombinant human 9cRDH activity (9-cis-retinol oxidation, CHO cell homogenate, HPLC); type: biochemical; settings: for inhibition of human 9cRDH activity (in words) / pIC50: 10 μM 9-cis-retinol; for pIC50: 15 min, 37° C., CHO cell homogenate, read-out: Estimated inhibitor concentration resulting in 50% inhibition of human 9-cis retinol dehydrogenase activity (ID50)
T1 sequence (Q92781 1-318): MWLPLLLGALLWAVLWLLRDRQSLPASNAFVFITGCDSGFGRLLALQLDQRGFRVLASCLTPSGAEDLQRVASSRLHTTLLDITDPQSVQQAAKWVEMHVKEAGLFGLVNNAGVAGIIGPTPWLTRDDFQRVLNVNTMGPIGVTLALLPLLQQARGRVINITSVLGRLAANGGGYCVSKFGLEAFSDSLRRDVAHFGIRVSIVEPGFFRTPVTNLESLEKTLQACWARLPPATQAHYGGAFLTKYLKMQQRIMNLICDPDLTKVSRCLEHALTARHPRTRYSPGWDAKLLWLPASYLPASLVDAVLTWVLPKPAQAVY

mouse 9cRDH = biological target: T2, mouse 9cRDH (Mus musculus, UniProt O55240); test: Inhibition of recombinant mouse 9cRDH activity (9-cis-retinol oxidation, CHO cell homogenate, HPLC); type: biochemical; settings: for inhibition of mouse 9cRDH activity (in words): 10 μM 9-cis-retinol
T2 sequence (O55240 1-318): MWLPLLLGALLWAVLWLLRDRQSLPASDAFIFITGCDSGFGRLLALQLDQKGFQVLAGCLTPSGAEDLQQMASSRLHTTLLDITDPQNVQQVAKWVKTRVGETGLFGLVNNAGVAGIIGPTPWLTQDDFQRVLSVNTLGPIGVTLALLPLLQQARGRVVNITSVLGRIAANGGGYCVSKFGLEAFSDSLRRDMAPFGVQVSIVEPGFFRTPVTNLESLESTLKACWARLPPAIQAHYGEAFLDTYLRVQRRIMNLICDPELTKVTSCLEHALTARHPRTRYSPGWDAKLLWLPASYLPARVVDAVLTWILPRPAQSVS

[2] = 10 μM steroid, equimolar to substrate, forward (retinol oxidation) or reverse (retinaldehyde reduction) direction
[3] = phenylarsine oxide 15 μM, carbenoxolone 0.5 mM, all others 1 mM
[4] = NaCl up to 1 M, β-mercaptoethanol, dithiothreitol 1 mM, Triton X-100, sodium cholate 1% (w/v)
[5] = […] 15 μM, carbenoxolone 0.5 mM, all others 1 mM

## C[C@]12CCC(=O)C=C1CC[C@@H]1[C@@H]2CC[C@]2(C)C(=O)CC[C@@H]12 [4-androstene-3,17dione]
[1]; [2]
  inhibition of human 9cRDH activity by hydroxysteroids: none of these hydroxysteroids inhibited
Mouse 9cRDH; [2]
  inhibition of mouse 9cRDH activity by hydroxysteroids: none of these hydroxysteroids inhibited

## Cc1cn[nH]c1 [4-methylpyrazole]
[1]; [3]
  influence of SCAD/alcohol dehydrogenase inhibiting reagents on recombinant human 9cRDH activity: none of these compounds influenced
Mouse 9cRDH; [3]
  influence of SCAD/alcohol dehydrogenase inhibiting reagents on recombinant mouse 9cRDH activity: none of these compounds influenced

## C[C@]12CCC(=O)C[C@@H]1CC[C@@H]1[C@@H]2CC[C@]2(C)C(=O)CC[C@@H]12 [5α-androstane-3,17dione]
[1]
  inhibition of human 9cRDH activity by hydroxysteroids: none of these hydroxysteroids inhibited
Mouse 9cRDH
  inhibition of mouse 9cRDH activity by hydroxysteroids: none of these hydroxysteroids inhibited

## C[C@]12CC[C@H](O)C[C@@H]1CC[C@@H]1[C@@H]2CC[C@]2(C)[C@@H](O)CC[C@@H]12 [5α-androstane-3β, 17βdiol]
[1]; [2]
  inhibition of human 9cRDH activity by hydroxysteroids: none of these hydroxysteroids inhibited
Mouse 9cRDH; [2]
  inhibition of mouse 9cRDH activity by hydroxysteroids: none of these hydroxysteroids inhibited

## O=C(O)CN(CCN(CC(=O)O)CC(=O)O)CC(=O)O [EDTA]
[1]; [4]
  effect on 9cRDH activity expressed in CHO cells (first series): not inhibited

## CCCCCCCC/C=C\CCCCCCCC(=O)O [Oleic Acid, oleic acid]
[1]
  times (fold) less potent than 13-cis retinoic acid as inhibitor of 9cRDH: approximately 100
  inhibition of human 9cRDH activity (in words): mild inhibitor; also recorded: only very weak inhibitors; also recorded: weakly inhibited
  pIC50: 4.82
Mouse 9cRDH
  inhibition of mouse 9cRDH activity (in words): only very weak inhibitors

## CCCCCCCC/C=C\CCCCCCCCO [Oleyl Alcohol, oleyl alcohol]
[1]
  inhibition of human 9cRDH activity (in words): did not inhibit; also recorded: only very weak inhibitors; also recorded: not an inhibitor
  pIC50: < 4.00
Mouse 9cRDH
  inhibition of mouse 9cRDH activity (in words): only very weak inhibitors

## CCCCCCCCCCCCCCCC(=O)O [Palmitic Acid, palmitic acid]
[1]
  pIC50: < 4.00
[1]; listed as Palmitic acid
  inhibition of human 9cRDH activity (in words): not an inhibitor
[1]; listed as palmitic acid
  inhibition of human 9cRDH activity (in words): not inhibitory; also recorded: only very weak inhibitors
Mouse 9cRDH
  inhibition of mouse 9cRDH activity (in words): only very weak inhibitors

## CCCCCCCCCCC/C=C\CCCCCO [Petroselinyl Alcohol, petroselinyl alcohol]
[1]
  inhibition of human 9cRDH activity (in words): did not inhibit; also recorded: not an inhibitor
  pIC50: < 4.00
[1]; listed as petrosenlinyl alcohol
  inhibition of human 9cRDH activity (in words): only very weak inhibitors
Mouse 9cRDH
  inhibition of mouse 9cRDH activity (in words): only very weak inhibitors

## CC1(C)[C@@H](OC(=O)CCC(=O)O)CC[C@]2(C)[C@H]3C(=O)C=C4[C@@H]5C[C@@](C)(C(=O)O)CC[C@]5(C)CC[C@@]4(C)[C@]3(C)CC[C@@H]12 [carbenoxolone]
[1]; [3]
  influence of SCAD/alcohol dehydrogenase inhibiting reagents on recombinant human 9cRDH activity: none of these compounds influenced
Mouse 9cRDH; [3]
  influence of SCAD/alcohol dehydrogenase inhibiting reagents on recombinant mouse 9cRDH activity: none of these compounds influenced

## CC(C)=CCCC(C)=CC=O [citral]
[1]; [5]
  influence of SCAD/alcohol dehydrogenase inhibiting reagents on recombinant human 9cRDH activity: none of these compounds influenced
Mouse 9cRDH; [5]
  influence of SCAD/alcohol dehydrogenase inhibiting reagents on recombinant mouse 9cRDH activity: none of these compounds influenced

## C[C@]12C[C@H](O)[C@H]3[C@@H](CCC4=CC(=O)CC[C@@]43C)[C@@H]1CC[C@@H]2C(=O)CO [corticosterone]
[1]; [2]
  inhibition of human 9cRDH activity by hydroxysteroids: none of these hydroxysteroids inhibited
Mouse 9cRDH; [2]
  inhibition of mouse 9cRDH activity by hydroxysteroids: none of these hydroxysteroids inhibited

## C[C@]12CCC(=O)C=C1CC[C@@H]1[C@@H]2C(=O)C[C@@]2(C)[C@H]1CC[C@]2(O)C(=O)CO [cortisone]
[1]; [2]
  inhibition of human 9cRDH activity by hydroxysteroids: none of these hydroxysteroids inhibited
Mouse 9cRDH; [2]
  inhibition of mouse 9cRDH activity by hydroxysteroids: none of these hydroxysteroids inhibited

## CCN(CC)C(=S)SSC(=S)N(CC)CC [disulfuran]
[1]; [5]
  influence of SCAD/alcohol dehydrogenase inhibiting reagents on recombinant human 9cRDH activity: none of these compounds influenced
Mouse 9cRDH; [5]
  influence of SCAD/alcohol dehydrogenase inhibiting reagents on recombinant mouse 9cRDH activity: none of these compounds influenced

## CCO [ethanol]
[1]
  inhibition of human 9cRDH activity (in words): not inhibited
[1]; [4]
  effect on 9cRDH activity expressed in CHO cells (first series): not inhibited
Mouse 9cRDH
  inhibition of mouse 9cRDH activity (in words): not inhibited

## C[C@]12CCC(=O)C=C1CC[C@@H]1[C@@H]2[C@@H](O)C[C@@]2(C)[C@H]1CC[C@]2(O)C(=O)CO [hydrocortisone]
[1]; [2]
  inhibition of human 9cRDH activity by hydroxysteroids: none of these hydroxysteroids inhibited
Mouse 9cRDH; [2]
  inhibition of mouse 9cRDH activity by hydroxysteroids: none of these hydroxysteroids inhibited

## c1cnc2c(c1)ccc1cccnc12 [o-phenanthroline, 1,10-phenanthroline]
[1]; [4]
  effect on 9cRDH activity expressed in CHO cells (first series): not inhibited
[1]; [3]
  influence of SCAD/alcohol dehydrogenase inhibiting reagents on recombinant human 9cRDH activity: none of these compounds influenced
Mouse 9cRDH; [3]
  influence of SCAD/alcohol dehydrogenase inhibiting reagents on recombinant mouse 9cRDH activity: none of these compounds influenced

## C[C@]12C=CC(=O)C=C1CC[C@@H]1[C@@H]2C(=O)C[C@@]2(C)[C@H]1CC[C@]2(O)C(=O)CO [prednisone]
[1]; [2]
  inhibition of human 9cRDH activity by hydroxysteroids: none of these hydroxysteroids inhibited
Mouse 9cRDH; [2]
  inhibition of mouse 9cRDH activity by hydroxysteroids: none of these hydroxysteroids inhibited

## CC(=O)[C@H]1CC[C@H]2[C@@H]3CCC4=CC(=O)CC[C@]4(C)[C@H]3CC[C@]12C [progesterone]
[1]; [2]
  inhibition of human 9cRDH activity by hydroxysteroids: none of these hydroxysteroids inhibited
Mouse 9cRDH; [2]
  inhibition of mouse 9cRDH activity by hydroxysteroids: none of these hydroxysteroids inhibited

## C[C@H](CCC(=O)[O-])[C@H]1CC[C@H]2[C@@H]3[C@H](O)C[C@@H]4C[C@H](O)CC[C@]4(C)[C@H]3C[C@H](O)[C@]12C.[Na+] [sodium cholate]
[1]
  effect on 9cRDH activity expressed in CHO cells (first series): rapidly inactivated

## CC(=O)[O-].CC(=O)[O-].[Zn+2] [zinc acetate]
[1]
  influence of SCAD/alcohol dehydrogenase inhibiting reagents on recombinant human 9cRDH activity: none of these compounds influenced
Mouse 9cRDH
  influence of SCAD/alcohol dehydrogenase inhibiting reagents on recombinant mouse 9cRDH activity: none of these compounds influenced

## C[C@]12CC[C@@H]3c4ccc(O)cc4CC[C@H]3[C@@H]1CC[C@@H]2O [β-estradiol]
[1]; [2]
  inhibition of human 9cRDH activity by hydroxysteroids: none of these hydroxysteroids inhibited
Mouse 9cRDH; [2]
  inhibition of mouse 9cRDH activity by hydroxysteroids: none of these hydroxysteroids inhibited

## Triton X-100
[1]
  effect on 9cRDH activity expressed in CHO cells (first series): rapidly inactivated
